Measured values reported in PubChem BioAssay (NCI).
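Method: 48-hour compound exposure of cells in 96-well plates, five concentrations, linear interpolation of endpoints. At the TGI there is no net growth.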

Experiments:
Experiment in all cases: inhibition of tumour cell growth, NCI panel, 48 h
HS 578T breast = test system: HS 578T breast
UACC-62 melanoma = test system: UACC-62 melanoma
SK-MEL-28 melanoma = test system: SK-MEL-28 melanoma
MCF7 breast = test system: MCF7 breast
A549 NSCLC = test system: A549 NSCLC
HL-60(TB) leukemia = test system: HL-60(TB) leukemia
UO-31 renal = test system: UO-31 renal
NCI-H226 lung = test system: NCI-H226 lung
MDA-N = test system: MDA-N

Row | SMILES | TGI (HS 578T breast) [µM] | TGI (UACC-62 melanoma) [µM] | TGI (SK-MEL-28 melanoma) [µM] | TGI (MCF7 breast) [µM] | TGI (A549 NSCLC) [µM] | TGI (HL-60(TB) leukemia) [µM] | TGI (UO-31 renal) [µM] | TGI (NCI-H226 lung) [µM] | TGI (MDA-N) [µM]
1 | O=C1CCCc2ccc3c(c21)CC1(Cc2cc4c(cc2C1)CCCC4)C3 | 81.4 | 49.2 | 63.7 | 56.7 | > 100 | 26.3 | 32.4 | 93.3 | –
2 | CC(CCC(=O)O)(c1cc(Br)c(O)c(Br)c1)c1cc(Br)c(O)c(Br)c1 | > 100 | > 100 | > 100 | > 100 | > 100 | > 100 | > 100 | > 100 | > 100
3 | N.N.NCCCCN.O=C([O-])CCl.O=C([O-])CCl.O=C([O-])CCl.O=C([O-])CCl.[Pt+4].[Pt+4] | – | > 50 | > 50 | – | > 50 | > 50 | > 50 | – | –
4 | NC(=O)c1ncn(C2CCC(CP(=O)(O)O)C2)c1N (stereo unspecified) | > 100 | > 100 | > 100 | > 100 | > 100 | – | > 100 | > 100 | > 100
5 | CN(C)CCNc1ccccn1 | > 100 | > 100 | > 100 | – | > 100 | > 100 | > 100 | > 100 | > 100
6 | C=CCn1c(-c2ccc(N=NNc3ccc(-c4n[nH]c(=S)n4CC=C)cc3)cc2)n[nH]c1=S | > 100 | – | > 100 | > 100 | > 100 | – | 3.97 | 6.13 | –
7 | COC(CO[Si](C)(C)N[Si](C)(C)OCC(OC)c1ccccc1)c1ccccc1 (stereo unspecified) | – | > 100 | > 100 | > 100 | > 100 | > 100 | > 100 | > 100 | > 100
8 | O=C1N2CCN=C2c2ccccc2C1(O)c1ccccc1 (stereo unspecified) | > 100 | > 100 | > 100 | > 100 | > 100 | > 100 | > 100 | > 100 | > 100
9 | Cc1cc2nc(N)n[n+]([O-])c2cc1C | > 100 | > 100 | > 100 | > 100 | > 100 | > 100 | > 100 | > 100 | > 100
10 | CC(CC(C)[C@H]1CCC2[C@H]3C(CC[C@@]21C)[C@@]1(C)CCC(O)C[C@H]1C[C@@H]3O)C(=O)O (stereo partly specified) | – | > 100 | > 100 | > 100 | > 100 | > 100 | > 100 | > 100 | > 100
11 | COC(=O)c1ccc2c(c1)CC1(C2)Cc2ccc3c(c2C1)CCC3 (stereo unspecified) | > 100 | 40.6 | > 100 | 81.5 | > 100 | 39.7 | – | > 100 | 17.8
12 | O=C(/C=C/c1ccccc1O)CC(=O)/C=C/c1ccccc1O | > 31.6 | 7.58 | > 31.6 | 7.61 | 26.9 | 9.87 | 12.6 | – | 13.3
13 | Cc1cc(CC(O)(C(F)(F)F)C(F)(F)F)cc(CC(O)(C(F)(F)F)C(F)(F)F)n1 | 8.23 | 12.5 | 9.54 | – | 10.9 | 7.85 | 4.02 | 8.13 | 13
14 | CCCc1c(OC)c(O)c2c(=O)cc(OC)c3c4c(OC)cc(=O)c5c(O)c(OC)c(CCC)c(c1c23)c54 | – | 59.9 | 21.1 | 26.5 | 25.8 | – | 11 | 14.8 | 22.7
15 | C/C(=C/CC[C@](C)(OC1OC(CO)C(O)C(O)C1OC1OC(C)C(O)C(O)C1O)[C@H]1CC[C@]2(C)[C@@H]1CC[C@@H]1[C@@]3(C)CC[C@H](O)C(C)(C)[C@@H]3C[C@H](O)[C@]12C)CO (stereo partly specified) | > 100 | > 100 | > 100 | > 100 | > 100 | > 100 | > 100 | > 100 | > 100
16 | Clc1ccc2nc3c(c(-c4ccccc4)nn3-c3ccccc3)c(-c3ccccc3)c2c1 | > 100 | > 100 | > 100 | > 100 | > 100 | > 100 | > 100 | > 100 | > 100
17 | NC(=O)NC1=NCCC(=O)N1CCc1c[nH]c2ccccc12 | 80.1 | 36.9 | 41.2 | – | 54.8 | 42.5 | 31.8 | 39.9 | 60.1
18 | CCNc1nc2ccccc2nc1NCC | > 100 | > 100 | > 100 | > 100 | > 100 | > 100 | > 100 | > 100 | > 100
19 | CCOC(=O)C(NC(=O)Nc1ccccc1)(Nc1cccc(Cl)c1)C(F)(F)F (stereo unspecified) | > 78.4 | > 100 | > 100 | > 100 | > 100 | > 100 | > 100 | > 100 | > 100
20 | c1ccc2c3c(c(N4CCNCC4)nc2c1)CCCC3 | > 100 | 30.4 | 31.1 | 27.6 | 30.8 | 24.3 | 16.3 | 29.6 | 28.3
21 | Nc1c(Cl)ncnc1NCC1(CO)CCC1 | > 100 | – | > 100 | > 100 | > 100 | > 100 | > 100 | > 100 | > 100
22 | COc1ccc(/C=N/N=C(N)N)c(C(=O)O)c1OC | – | > 100 | > 100 | – | > 100 | > 100 | > 100 | – | –
23 | O=C(NC12CC3CC(CC(C3)C1)C2)n1cnc2cncnc21 | > 100 | > 100 | > 100 | > 100 | > 100 | > 100 | > 100 | – | > 100
24 | C=C1CN(C(=O)c2cc3cc(OC)c(OC)c(OC)c3[nH]2)c2cc([N+](=O)[O-])ccc21 | 41.9 | > 100 | > 100 | > 100 | > 100 | > 100 | > 100 | > 100 | > 100
25 | O=c1[nH]/c(=C/c2cccs2)c(=O)[nH]/c1=C/c1ccc(OCc2ccccc2)cn1 | 0.204 | 40.3 | > 100 | 39.6 | > 55.9 | 0.244 | > 100 | 33.3 | 0.0766
